Experimental data from patent publication US20090124656A1, “Heterocyclic Oxime Compounds a Process for Their Preparation and Pharmaceutical Compositions Containing Them” (LES LABORATOIRES SERVIER, priority 2005, published 2009).

Tested on: ob/ob mouse
Assay: Antidiabetic and hypolipaemic effect in the ob/ob mouse
Format: in vivo
Conditions: dose of 3 mg/kg for 4 days
Excerpt: Mutations in laboratory animals and also different sensitivities to dietary regimens have allowed the development of animal models having non-insulin-dependent diabetes and hyperlipidaemia associated with obesity and with resistance to insulin.
Genetic mice models (ob/ob) (Diabetes, 1982, 31 (1), 1-6) and Zucker (fa/fa) rats have been developed by various laboratories in order to understand the physiopathology of those diseases and test the effectiveness of new antidiabetic compounds (Diabetes, 1983, 32, 830-838).
Antidiabetic and Hypolipaemic Effect in the ob/ob Mouse
The 10-week-old female ob/ob mouse (Harlan) is used for the in vivo tests. The animals are kept in a light-darkness cycle of 12 hours at 25° C. The mouse has a basal hyperglycaemia of 2 g/l. The animals are randomly selected with regard to their glycaemia to form groups of six. […] […] The control groups receive the solvents under the same conditions as the treated groups.
The activity of the products is evaluated by measuring glycaemia 24 hours after the final administration and by measuring body weight daily.

CCOC(Cc1ccc(OCCN2CCC(C)(C)c3cc(C(=O)C4CCCCC4)ccc32)cc1)C(=O)O (stereo not drawn) [3-{4-[2-(6-(Cyclohexylcarbonyl)-4,4-dimethyl-3,4-dihydro-1(2H)-quinolinyl)ethoxy]phenyl}-2-ethoxypropanoic acid]
reduction in glycaemia: 32%
reduction in insulinaemia: 56%
reduction in triglyceridaemia: 57%
